Active and inactive are the calls of the source. The calls are words filed in the database; no cut-off is given here.
Columns and labels:
TERT-RPE1 [1] = experiment: Induction of cell cycle arrest in human TERT-RPE1 cells assessed as accumulation of cells at G1 phase at 100 nM incubated for 72 hrs by annexin V-FITC and PI staining based flow cytometry analysis; format: functional
TERT-RPE1 [2] = experiment: Induction of cell cycle arrest in human TERT-RPE1 cells assessed as accumulation of cells at G1 phase at 1000 nM incubated for 72 hrs by annexin V-FITC and PI staining based flow cytometry analysis; format: functional
TERT-RPE1 [3] = experiment: Induction of cell cycle arrest in human TERT-RPE1 cells assessed as accumulation of cells at G1 phase at 2500 nM incubated for 72 hrs by annexin V-FITC and PI staining based flow cytometry analysis; format: functional
TERT-RPE1 [4] = experiment: Induction of cell cycle arrest in human TERT-RPE1 cells assessed as accumulation of cells at S phase at 100 nM incubated for 72 hrs by annexin V-FITC and PI staining based flow cytometry analysis; format: functional
TERT-RPE1 [5] = experiment: Induction of cell cycle arrest in human TERT-RPE1 cells assessed as accumulation of cells at S phase at 1000 nM incubated for 72 hrs by annexin V-FITC and PI staining based flow cytometry analysis; format: functional
TERT-RPE1 [6] = experiment: Induction of cell cycle arrest in human TERT-RPE1 cells assessed as accumulation of cells at S phase at 2500 nM incubated for 72 hrs by annexin V-FITC and PI staining based flow cytometry analysis; format: functional
TERT-RPE1 [7] = experiment: Induction of cell cycle arrest in human TERT-RPE1 cells assessed as accumulation of cells at G2/M phase at 100 nM incubated for 72 hrs by annexin V-FITC and PI staining based flow cytometry analysis; format: functional
TERT-RPE1 [8] = experiment: Induction of cell cycle arrest in human TERT-RPE1 cells assessed as accumulation of cells at G2/M phase at 1000 nM incubated for 72 hrs by annexin V-FITC and PI staining based flow cytometry analysis; format: functional
TERT-RPE1 [9] = experiment: Induction of cell cycle arrest in human TERT-RPE1 cells assessed as accumulation of cells at G2/M phase at 2500 nM incubated for 72 hrs by annexin V-FITC and PI staining based flow cytometry analysis; format: functional
HeLa [10] = experiment: Induction of cell cycle arrest in human HeLa cells assessed as accumulation of cells at G1 phase at 100 nM incubated for 72 hrs by annexin V-FITC and PI staining based flow cytometry analysis; format: functional
HeLa [11] = experiment: Induction of cell cycle arrest in human HeLa cells assessed as accumulation of cells at G1 phase at 1000 nM incubated for 72 hrs by annexin V-FITC and PI staining based flow cytometry analysis; format: functional
HeLa [12] = experiment: Induction of cell cycle arrest in human HeLa cells assessed as accumulation of cells at G1 phase at 2500 nM incubated for 72 hrs by annexin V-FITC and PI staining based flow cytometry analysis; format: functional
HeLa [13] = experiment: Induction of cell cycle arrest in human HeLa cells assessed as accumulation of cells at S phase at 100 nM incubated for 72 hrs by annexin V-FITC and PI staining based flow cytometry analysis; format: functional
HeLa [14] = experiment: Induction of cell cycle arrest in human HeLa cells assessed as accumulation of cells at S phase at 1000 nM incubated for 72 hrs by annexin V-FITC and PI staining based flow cytometry analysis; format: functional
HeLa [15] = experiment: Induction of cell cycle arrest in human HeLa cells assessed as accumulation of cells at S phase at 2500 nM incubated for 72 hrs by annexin V-FITC and PI staining based flow cytometry analysis; format: functional
HeLa [16] = experiment: Induction of cell cycle arrest in human HeLa cells assessed as accumulation of cells at G2/M phase at 100 nM incubated for 72 hrs by annexin V-FITC and PI staining based flow cytometry analysis; format: functional
HeLa [17] = experiment: Induction of cell cycle arrest in human HeLa cells assessed as accumulation of cells at G2/M phase at 1000 nM incubated for 72 hrs by annexin V-FITC and PI staining based flow cytometry analysis; format: functional
HeLa [18] = experiment: Induction of cell cycle arrest in human HeLa cells assessed as accumulation of cells at G2/M phase at 2500 nM incubated for 72 hrs by annexin V-FITC and PI staining based flow cytometry analysis; format: functional
AHH-1 [19] = experiment: Induction of cell cycle arrest in human AHH-1 cells assessed as accumulation of cells at G1 phase at 100 nM incubated for 72 hrs by annexin V-FITC and PI staining based flow cytometry analysis; format: functional
AHH-1 [20] = experiment: Induction of cell cycle arrest in human AHH-1 cells assessed as accumulation of cells at G1 phase at 1000 nM incubated for 72 hrs by annexin V-FITC and PI staining based flow cytometry analysis; format: functional
AHH-1 [21] = experiment: Induction of cell cycle arrest in human AHH-1 cells assessed as accumulation of cells at G1 phase at 2500 nM incubated for 72 hrs by annexin V-FITC and PI staining based flow cytometry analysis; format: functional
AHH-1 [22] = experiment: Induction of cell cycle arrest in human AHH-1 cells assessed as accumulation of cells at S phase at 100 nM incubated for 72 hrs by annexin V-FITC and PI staining based flow cytometry analysis; format: functional
AHH-1 [23] = experiment: Induction of cell cycle arrest in human AHH-1 cells assessed as accumulation of cells at S phase at 1000 nM incubated for 72 hrs by annexin V-FITC and PI staining based flow cytometry analysis; format: functional
AHH-1 [24] = experiment: Induction of cell cycle arrest in human AHH-1 cells assessed as accumulation of cells at S phase at 2500 nM incubated for 72 hrs by annexin V-FITC and PI staining based flow cytometry analysis; format: functional
AHH-1 [25] = experiment: Induction of cell cycle arrest in human AHH-1 cells assessed as accumulation of cells at G2/M phase at 100 nM incubated for 72 hrs by annexin V-FITC and PI staining based flow cytometry analysis; format: functional
AHH-1 [26] = experiment: Induction of cell cycle arrest in human AHH-1 cells assessed as accumulation of cells at G2/M phase at 1000 nM incubated for 72 hrs by annexin V-FITC and PI staining based flow cytometry analysis; format: functional
AHH-1 [27] = experiment: Induction of cell cycle arrest in human AHH-1 cells assessed as accumulation of cells at G2/M phase at 2500 nM incubated for 72 hrs by annexin V-FITC and PI staining based flow cytometry analysis; format: functional
HeLa [28] = experiment: Induction of cell cycle arrest in human HeLa cells assessed as accumulation of cells at sub-G1 phase incubated for 72 hrs by annexin V-FITC and PI staining based flow cytometry analysis; format: functional
AHH-1 [29] = experiment: Induction of cell cycle arrest in human AHH-1 cells assessed as accumulation of cells at sub-G1 phase incubated for 72 hrs by annexin V-FITC and PI staining based flow cytometry analysis; format: functional
AHH-1 [30] = experiment: Induction of apoptosis in human AHH-1 cells at 100 to 2500 nM measured after 72 hrs by annexin V-FITC and PI staining based flow cytometry analysis; format: functional, cell-based; conditions: dose 100-2500 nM
Farage = experiment: Antiproliferative activity against human Farage cells assessed as inhibition of cell growth measured for 72 hrs by MTT assay; format: functional, cell-based
KARPAS-422 = experiment: Antiproliferative activity against human KARPAS-422 cells assessed as inhibition of cell growth measured for 72 hrs by MTT assay; format: functional, cell-based; conditions: KARPAS-422, 72 h
TMD8 = experiment: Antiproliferative activity against human TMD8 cells assessed as inhibition of cell growth measured for 72 hrs by MTT assay; format: functional, cell-based; conditions: TMD8, 72 h
U2932 = experiment: Antiproliferative activity against human U2932 cells assessed as inhibition of cell growth measured for 72 hrs by MTT assay; format: functional, cell-based; conditions: U2932, 72 h
Z-138 = experiment: Antiproliferative activity against human Z138 cells assessed as inhibition of cell growth measured for 72 hrs by MTT assay; format: functional, cell-based; conditions: Z-138, 72 h
Maver1 = experiment: Antiproliferative activity against human MAVER-1 cells assessed as inhibition of cell growth measured for 72 hrs by MTT assay; format: functional, cell-based; conditions: Maver1, 72 h
[31] = Metabolic stability in human liver microsome assessed as half life measured upto 60 mins by LC-MS/MS analysis; format: ADME; conditions: liver microsomes
[32] = Metabolic stability in mouse liver microsome assessed as half life measured upto 60 mins by LC-MS/MS analysis; format: ADME; conditions: liver microsomes

Structure (SMILES): COc1ccc(/C=C\c2cc(OC)c(OC)c(OC)c2)cc1O [COMBRETASTATIN A4]
- Activity (TERT-RPE1 [1]): 23%
- Activity (TERT-RPE1 [2]): 17.1%
- Activity (TERT-RPE1 [3]): 19%
- Activity (TERT-RPE1 [4]): 9%
- Activity (TERT-RPE1 [5]): 8.4%
- Activity (TERT-RPE1 [6]): 5.4%
- Activity (TERT-RPE1 [7]): 68%
- Activity (TERT-RPE1 [8]): 74.6%
- Activity (TERT-RPE1 [9]): 73%
- Activity (HeLa [10]): 23.4%
- Activity (HeLa [11]): 10.1%
- Activity (HeLa [12]): 8.8%
- Activity (HeLa [13]): 15.5%
- Activity (HeLa [14]): 16.8%
- Activity (HeLa [15]): 9.2%
- Activity (HeLa [16]): 61.1%
- Activity (HeLa [17]): 73.1%
- Activity (HeLa [18]): 75.2%
- Activity (AHH-1 [19]): 8.6%
- Activity (AHH-1 [20]): 7.8%
- Activity (AHH-1 [21]): 7%
- Activity (AHH-1 [22]): 17%
- Activity (AHH-1 [23]): 13.4%
- Activity (AHH-1 [24]): 10.3%
- Activity (AHH-1 [25]): 74.5%
- Activity (AHH-1 [26]): 78.8%
- Activity (AHH-1 [27]): 74.1%
- Activity (HeLa [28]): Active
- Activity (AHH-1 [29]): Active
- Activity (AHH-1 [30]): Active
- IC50 (Farage): 0.7 nM
- IC50 (KARPAS-422): 0.58 nM
- IC50 (TMD8): 0.66 nM
- IC50 (U2932): 0.89 nM
- IC50 (Z-138): 0.78 nM
- IC50 (Maver1): 4.6 nM

Structure (SMILES): CCOc1ccc2ccc(=O)oc2c1 [ETHOXYCOUMARIN]
- half-life [31]: 8.3 min
- half-life [32]: 3.3 min

Structure (SMILES): CC(C)NCC(O)COc1cccc2ccccc12 (stereo not given) [PROPRANOLOL]
- half-life [31]: 47 min
- half-life [32]: 11.8 min

Reference: ChEMBL document CHEMBL5352470, “RS6077 induces mitotic arrest and selectively activates cell death in human cancer cell lines and in a lymphoma tumor in vivo” (Eur J Med Chem, 2023)
